Reference: publication PMC12162769, “Synthesis and Evaluation of a Hybrid Miltefosine-Silver Nanoparticle Complex: Synergistic Interaction with Benznidazole Against Trypanosoma cruzi” (Acta Parasitologica, 2025)
In brackets after ≈: the same amount, converted by molar mass.

Key:
[1] = test system: T. cruzi ATCC 50825 strain epimastigotes; experiment: Antitrypanosomal activity, broth microdilution with MTT viability (IC50); type: cell-based, Trypanosoma cruzi; conditions: for SI (selectivity index): IC50 fibroblasts (L929) / IC50 T. cruzi epimastigotes; for IC50: Trypanosoma cruzi
Method: The Trypanosoma cruzi ATCC 50825 reference strain and the L929 mouse fibroblast cell line (American Type Culture Collection, USA) used in this study were obtained from the Parasite Bank of […] Bayar University Faculty of Medicine. […] For the determination of antitrypanosomal activity, 100 μL of RPMI-1640 medium was distributed into each well of sterile, flat-bottom, 96-well microplates. Serial dilutions of the hybrid NP complex were prepared in the range of 2500-19.5 μg/mL, miltefosine in the range of 128-1 μg/mL, and benznidazole in the range of 320-0.30 μg/mL. […] The morphological structure and motility of the epimastigotes in all wells were observed under an inverted microscope. The lowest concentration of the active substance at which all parasites were immobile and their morphology was disrupted was determined as the minimum parasiticidal concentration (MPC). […] Absorbance values were measured at 570 nm using a Thermo Varioskan model spectrophotometer (USA). IC50 values indicating antitrypanosomal activity were calculated using GraphPad Prism 8.4.2 software. Efficacy tests were repeated three times on different days.

[2] = Cytotoxic activity, MTT assay; type: cell-based; conditions: mouse, L929 fibroblast cells, read-out: IC50 L929 (cytotoxicity)
Method: The Trypanosoma cruzi ATCC 50825 reference strain and the L929 mouse fibroblast cell line (American Type Culture Collection, USA) used in this study were obtained from the Parasite Bank of […] Bayar University Faculty of Medicine. Fibroblasts preserved in liquid nitrogen were treated with RPMI-1640 and passaged into RPMI-1640 medium containing 10% FBS (fetal bovine serum). The cells were incubated at 37 °C with 5% CO2 for 48 h. The number and viability of proliferating cells were determined using Trypan Blue staining and a hemocytometer. A 100 μL cell suspension containing 10^5 cells/mL was distributed into 96-well microplates. Serial dilutions of the […] suspension (final concentration range: 5000-39 μg/mL), miltefosine (final concentration range: 512-0.125 μg/mL), and benznidazole (final concentration range: 640-0.60 μg/mL) were prepared in a separate microplate and transferred to the microplates containing the cells. The plates were incubated at 37 °C with 5% CO2 for 48 h. […] IC50 values indicating cytotoxic activity were calculated using GraphPad Prism 8.4.2 software. The cytotoxic activity tests were repeated three times on different days.

[3] = test system: T. cruzi ATCC 50825 strain epimastigotes; experiment: Minimum parasiticidal concentration (MPC), motility and morphology under inverted microscope; type: cell-based, Trypanosoma cruzi
T. cruzi amastigote = test system: T. cruzi amastigote; set-up: method as in Gulin et al. (2022) [17]; conditions: amastigote forms; ref Gulin et al. (2022) [17]; cited from earlier work
T. cruzi trypomastigote = test system: T. cruzi trypomastigote; set-up: method as in Gulin et al. (2022) [17]; conditions: trypomastigote forms; ref Gulin et al. (2022) [17]; cited from earlier work
[4] = ATCC50825, 24 h, 24 h, epimastigotes
[5] = ATCC50825, 48 h, 48 h, epimastigotes
[6] = ATCC50825, 72 h, 72 h, epimastigotes

Row | Structure (SMILES) | SI (selectivity index) ([1]; 24 h) | SI (selectivity index) ([1]; 48 h) | SI (selectivity index) ([1]; 72 h) | IC50 [1, 4] | IC50 [1, 5] | IC50 [1, 6] | IC50 at 24 h [2] | IC50 at 48 h [2] | IC50 at 72 h [2] | MPC (minimum parasiticidal concentration) ([3]; 24 h) | MPC (minimum parasiticidal concentration) ([3]; 48 h) | MPC (minimum parasiticidal concentration) ([3]; 72 h) | IC50 T. cruzi ([1]; 72 h, epimastigotes) | Selectivity (SI) as worded ([1]; over 24, 48 and 72 h, L929 vs T. cruzi epimastigotes) | IC50 (T. cruzi amastigote) | IC50 (T. cruzi trypomastigote)
1 | O=C(Cn1ccnc1[N+](=O)[O-])NCc1ccccc1 [Benznidazole] | 15 | 18.2 | 23 | 67.1 µg/mL (≈ 258 µM) | 45 µg/mL (≈ 173 µM) | 34.5 µg/mL (≈ 133 µM) | 1010 µg/mL (≈ 3880 µM) | 822 µg/mL (≈ 3160 µM) | 807 µg/mL (≈ 3100 µM) | 155 µg/mL | 155 µg/mL | 77.5 µg/mL | – | – | – | –
2 | CCCCCCCCCCCCCCCCOP(=O)([O-])OCC[N+](C)(C)C [Miltefosine] | 1.5 | 2.2 | 4.2 | 26.2 µg/mL (≈ 64.2 µM) | 15 µg/mL (≈ 36.8 µM) | 6.42 µg/mL (≈ 15.8 µM) | 38 µg/mL (≈ 93.4 µM) | 33.5 µg/mL (≈ 82.2 µM) | 27 µg/mL (≈ 66.2 µM) | 128 µg/mL | 128 µg/mL | 64 µg/mL | 6.42 µg/mL (≈ 15.8 µM) | > 1 | 480 nM | 550 nM
